Experiments:
[1] = test system: phosphorylation of EGFR (Tyr1068) in NCI-H1975 cell line that harbors the EGFR L858R T790M mutations; assay: NCI-H1975 pEGFR AlphaLISA assay; format: cell-based; settings: Homo sapiens, NCI-H1975, inhibition of phosphorylation of mutant EGFR in NCI-H1975 cells; 4-5 hours incubation; read-out: Ext pEGFR H1975
Summary of the method: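 NCI-H1975 cells (EGFR L858R/T790M) seeded overnight, then treated with compound for 4-5 h at 37 °C/5% CO2. After lysis, p-EGFR (Tyr1068) quantified by AlphaLISA SureFire Ultra with acceptor then donor beads; IC50 fitted from percent inhibition versus log concentration.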

EGFR (L858R T790M C797S) = target: T1, EGFR (L858R T790M C797S) (Homo sapiens, UniProt P00533, C797S/L858R/T790M); assay: Biochemical EGFR inhibition assay (Caliper mobility shift), EGFR LRTMCS mutant; settings: inhibitory activity against EGFR LRTMCS mutant; apparent IC50; read-out: Ext Enz LRTMCS
T1 construct: purchased SignalChem E10-122VG
T1 sequence (P00533 25-1210 T790M/C797S/L858R): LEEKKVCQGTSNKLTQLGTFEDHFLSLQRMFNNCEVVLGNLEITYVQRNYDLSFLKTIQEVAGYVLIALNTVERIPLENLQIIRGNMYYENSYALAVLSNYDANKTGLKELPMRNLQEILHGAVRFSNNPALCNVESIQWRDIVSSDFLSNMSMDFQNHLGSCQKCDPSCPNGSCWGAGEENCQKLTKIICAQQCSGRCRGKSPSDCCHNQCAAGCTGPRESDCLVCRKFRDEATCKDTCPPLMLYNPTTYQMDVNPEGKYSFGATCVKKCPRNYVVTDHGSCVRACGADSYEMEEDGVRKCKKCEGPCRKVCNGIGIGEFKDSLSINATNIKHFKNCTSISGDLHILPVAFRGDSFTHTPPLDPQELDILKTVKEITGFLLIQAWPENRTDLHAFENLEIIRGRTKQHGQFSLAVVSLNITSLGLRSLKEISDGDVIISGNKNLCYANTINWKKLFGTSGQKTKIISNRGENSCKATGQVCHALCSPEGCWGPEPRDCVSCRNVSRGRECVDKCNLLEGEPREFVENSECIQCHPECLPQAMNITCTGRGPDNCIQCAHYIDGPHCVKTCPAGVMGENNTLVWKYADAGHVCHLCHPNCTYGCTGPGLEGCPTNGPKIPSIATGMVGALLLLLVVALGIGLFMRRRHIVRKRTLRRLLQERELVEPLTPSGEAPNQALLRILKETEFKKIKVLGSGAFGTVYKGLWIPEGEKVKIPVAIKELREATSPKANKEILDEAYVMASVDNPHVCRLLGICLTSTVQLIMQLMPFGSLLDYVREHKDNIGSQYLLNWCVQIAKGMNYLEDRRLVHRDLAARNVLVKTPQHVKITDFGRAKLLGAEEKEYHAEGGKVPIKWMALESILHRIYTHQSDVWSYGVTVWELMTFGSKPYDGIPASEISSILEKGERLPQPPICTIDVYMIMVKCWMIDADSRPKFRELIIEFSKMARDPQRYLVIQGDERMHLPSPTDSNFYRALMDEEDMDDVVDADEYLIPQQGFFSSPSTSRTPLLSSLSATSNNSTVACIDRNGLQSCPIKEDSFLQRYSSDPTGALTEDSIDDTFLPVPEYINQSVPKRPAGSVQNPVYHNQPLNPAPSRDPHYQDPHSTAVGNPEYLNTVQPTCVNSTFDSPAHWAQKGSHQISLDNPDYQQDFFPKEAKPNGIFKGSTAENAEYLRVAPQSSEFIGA
Summary of the method: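 Kinase reactions proceed at 25° C. to 10%–20% conversion of total peptide, are terminated with 35 mM EDTA, and the phosphopeptide is resolved from substrate by electrophoretic mobility shift. Apparent IC50 values come from plotting percent activity against log compound concentration.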

Row | IC50 [1] [nM] | IC50 (EGFR (L858R T790M C797S)) [nM] | Compound
1 | ≤ 10 | ≤ 15 | CCS(=O)(=O)CC1CN(c2ccc(C(C)C)c3cc(Nc4cnnc(N5CC[C@@H](OC)[C@@H](F)C5)n4)ncc23)C1 [Compound 280, 8-{3-[(ethanesulfonyl)methyl]azetidin-1-yl}-N-{3-[(3S,4R)-3-fluoro-4-methoxypiperidin-1-yl]-1,2,4-triazin-5-yl}-5-(propan-2-yl)isoquinolin-3-amine]
2 | ≤ 10 | ≤ 15 | CCS(=O)(=O)CC1CN(c2ccc(C(C)C)c3cc(Nc4cnnc(N5CC[C@H](OC)[C@H](F)C5)n4)ncc23)C1 [Compound 281, 8-{3-[(ethanesulfonyl)methyl]azetidin-1-yl}-N-{3-[(3R,4S)-3-fluoro-4-methoxypiperidin-1-yl]-1,2,4-triazin-5-yl}-5-(propan-2-yl)isoquinolin-3-amine]
3 | ≤ 10 | ≤ 15 | CCS(=O)(=O)C[C@H]1CN(c2ccc(C(C)C)c3cc(Nc4cnnc(N5CC[C@@H](OC)[C@@H](F)C5)n4)ncc23)[C@@H]1C [Compound 288, 8-[(2R,3S)-3-[(ethanesulfonyl)methyl]-2-methylazetidin-1-yl]-N-{3-[(3S,4R)-3-fluoro-4-methoxypiperidin-1-yl]-1,2,4-triazin-5-yl}-5-(propan-2-yl)isoquinolin-3-amine]
4 | ≤ 10 | ≤ 15 | CCS(=O)(=O)C[C@H]1CN(c2ccc(C(C)C)c3cc(Nc4cnnc(N5CC[C@H](OC)[C@H](F)C5)n4)ncc23)[C@@H]1C [Compound 289, 8-[(2R,3S)-3-[(ethanesulfonyl)methyl]-2-methylazetidin-1-yl]-N-{3-[(3R,4S)-3-fluoro-4-methoxypiperidin-1-yl]-1,2,4-triazin-5-yl}-5-(propan-2-yl)isoquinolin-3-amine]
5 | ≤ 10 | ≤ 15 | CC(C)c1ccc(N2CC(CS(C)(=O)=O)C2)c2cnc(Nc3ccnc(N4CC[C@H](OCCO)[C@H](F)C4)n3)cc12 [Compound 290, 2-{[(3R,4S)-3-fluoro-1-[4-({8-[3-(methanesulfonylmethyl)azetidin-1-yl]-5-(propan-2-yl)isoquinolin-3-yl}amino)pyrimidin-2-yl]piperidin-4-yl]oxy}ethan-1-ol]
6 | ≤ 10 | ≤ 15 | CCS(=O)(=O)CC1CN(c2ccc(C(C)C)c3cc(Nc4ccnc(N5CC[C@@H](OCCO)[C@@H](F)C5)n4)ncc23)C1 [Compound 292, 2-{[(3S,4R)-1-{4-[(8-{3-[(ethanesulfonyl)methyl]azetidin-1-yl}-5-(propan-2-yl)isoquinolin-3-yl)amino]pyrimidin-2-yl}-3-fluoropiperidin-4-yl]oxy}ethan-1-ol]
7 | ≤ 10 | ≤ 15 | CCS(=O)(=O)CC1CN(c2ccc(C(C)C)c3cc(Nc4ccnc(N5CC[C@H](OCCO)[C@H](F)C5)n4)ncc23)C1 [Compound 293, 2-{[(3R,4S)-1-{4-[(8-{3-[(ethanesulfonyl)methyl]azetidin-1-yl}-5-(propan-2-yl)isoquinolin-3-yl)amino]pyrimidin-2-yl}-3-fluoropiperidin-4-yl]oxy}ethan-1-ol]
8 | ≤ 10 | ≤ 15 | CNCCO[C@H]1CCN(c2nccc(Nc3cc4c(C(C)C)ccc(N5C[C@H](CS(C)(=O)=O)[C@H]5C)c4cn3)n2)C[C@H]1F [Compound 297, N-{2-[(3R,4S)-3-fluoro-4-[2-(methylamino)ethoxy]piperidin-1-yl]pyrimidin-4-yl}-8-[(2R,3S)-3-(methanesulfonylmethyl)-2-methylazetidin-1-yl]-5-(propan-2-yl)isoquinolin-3-amine]
9 | ≤ 10 | ≤ 15 | CCS(=O)(=O)C[C@H]1CN(c2cnc(C(C)C)c3cc(Nc4ccnc(N5CC[C@@H](OCCO)[C@@H](F)C5)n4)ncc23)[C@@H]1C [Compound 298, 2-{[(3S,4R)-1-[4-({8-[(2R,3S)-3-[(ethanesulfonyl)methyl]-2-methylazetidin-1-yl]-5-(propan-2-yl)-2,6-naphthyridin-3-yl}amino)pyrimidin-2-yl]-3-fluoropiperidin-4-yl]oxy}ethan-1-ol]

From patent US12172983B2, “EGFR inhibitors” (Blueprint Medicines Corporation, priority 2019, dated 2024)
